Reference: PMC6437697 (Journal of Medicinal Chemistry, 2019)

Assays:
Assay in all cases: KINOMEscan
Type in all cases: binding
Conditions in all cases: read-out: % control activity remaining
[1] = molecular target: T1, EPHA5 (Homo sapiens, UniProt P54756)
T1 construct: purchased Eurofins DiscoverX KINOMEscan

[2] = molecular target: T2, MEK1 (Homo sapiens, UniProt Q02750)
T2 construct: purchased Eurofins DiscoverX KINOMEscan

[3] = molecular target: T3, CSNK2A1 (Homo sapiens, UniProt P68400)
T3 construct: purchased Eurofins DiscoverX KINOMEscan
T3 sequence (P68400 whole entry): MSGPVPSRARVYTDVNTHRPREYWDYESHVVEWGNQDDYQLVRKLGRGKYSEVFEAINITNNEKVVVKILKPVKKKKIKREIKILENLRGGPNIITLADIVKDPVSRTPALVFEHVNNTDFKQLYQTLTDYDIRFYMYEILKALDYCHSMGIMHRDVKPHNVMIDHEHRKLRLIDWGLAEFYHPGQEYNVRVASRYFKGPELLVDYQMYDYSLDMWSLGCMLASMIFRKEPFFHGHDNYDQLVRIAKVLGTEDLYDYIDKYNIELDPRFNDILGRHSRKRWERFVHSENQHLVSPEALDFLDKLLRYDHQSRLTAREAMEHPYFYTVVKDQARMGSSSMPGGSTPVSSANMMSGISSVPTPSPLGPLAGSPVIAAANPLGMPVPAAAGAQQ

[4] = molecular target: T4, HASPIN (Homo sapiens, UniProt Q8TF76)
T4 construct: purchased Eurofins DiscoverX KINOMEscan
T4 sequence (Q8TF76 1-798): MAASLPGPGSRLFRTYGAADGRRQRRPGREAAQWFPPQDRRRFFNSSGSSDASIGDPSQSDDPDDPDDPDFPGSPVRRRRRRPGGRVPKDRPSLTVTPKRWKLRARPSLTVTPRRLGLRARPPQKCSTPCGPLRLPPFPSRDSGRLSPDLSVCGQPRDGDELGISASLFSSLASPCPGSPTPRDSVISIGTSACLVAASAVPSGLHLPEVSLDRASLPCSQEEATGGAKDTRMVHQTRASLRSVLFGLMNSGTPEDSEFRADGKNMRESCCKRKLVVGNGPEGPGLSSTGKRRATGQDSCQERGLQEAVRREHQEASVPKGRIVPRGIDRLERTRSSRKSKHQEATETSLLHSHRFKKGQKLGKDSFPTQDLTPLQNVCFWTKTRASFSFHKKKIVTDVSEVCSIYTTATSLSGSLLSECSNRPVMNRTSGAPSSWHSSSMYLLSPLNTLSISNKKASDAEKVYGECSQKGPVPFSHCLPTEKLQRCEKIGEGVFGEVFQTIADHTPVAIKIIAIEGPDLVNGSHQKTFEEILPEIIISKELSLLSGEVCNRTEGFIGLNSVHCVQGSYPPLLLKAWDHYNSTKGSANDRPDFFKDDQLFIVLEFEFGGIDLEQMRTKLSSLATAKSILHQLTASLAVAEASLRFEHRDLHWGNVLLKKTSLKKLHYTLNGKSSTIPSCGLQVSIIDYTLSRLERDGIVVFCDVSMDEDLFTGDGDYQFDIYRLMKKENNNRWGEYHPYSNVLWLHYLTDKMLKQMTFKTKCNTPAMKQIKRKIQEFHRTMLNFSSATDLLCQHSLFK

[5] = molecular target: T5, YES (Homo sapiens, UniProt P07947)
T5 construct: purchased Eurofins DiscoverX KINOMEscan
T5 sequence (P07947 whole entry): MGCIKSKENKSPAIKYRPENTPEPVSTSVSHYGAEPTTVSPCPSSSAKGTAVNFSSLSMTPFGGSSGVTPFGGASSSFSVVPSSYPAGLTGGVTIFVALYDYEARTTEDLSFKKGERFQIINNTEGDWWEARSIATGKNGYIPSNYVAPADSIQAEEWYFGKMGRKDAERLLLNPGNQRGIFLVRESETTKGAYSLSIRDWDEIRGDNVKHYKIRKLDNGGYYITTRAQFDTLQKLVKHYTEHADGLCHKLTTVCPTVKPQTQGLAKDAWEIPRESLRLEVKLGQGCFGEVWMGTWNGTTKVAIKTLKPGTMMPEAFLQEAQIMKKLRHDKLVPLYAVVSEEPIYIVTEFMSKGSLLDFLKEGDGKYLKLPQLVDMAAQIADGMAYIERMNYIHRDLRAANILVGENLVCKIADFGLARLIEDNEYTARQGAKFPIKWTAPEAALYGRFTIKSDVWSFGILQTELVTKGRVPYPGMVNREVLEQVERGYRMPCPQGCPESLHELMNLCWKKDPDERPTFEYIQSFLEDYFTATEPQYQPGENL

[6] = molecular target: T6, MARK4 (Homo sapiens, UniProt Q96L34)
T6 construct: purchased Eurofins DiscoverX KINOMEscan
T6 sequence (Q96L34 1-752): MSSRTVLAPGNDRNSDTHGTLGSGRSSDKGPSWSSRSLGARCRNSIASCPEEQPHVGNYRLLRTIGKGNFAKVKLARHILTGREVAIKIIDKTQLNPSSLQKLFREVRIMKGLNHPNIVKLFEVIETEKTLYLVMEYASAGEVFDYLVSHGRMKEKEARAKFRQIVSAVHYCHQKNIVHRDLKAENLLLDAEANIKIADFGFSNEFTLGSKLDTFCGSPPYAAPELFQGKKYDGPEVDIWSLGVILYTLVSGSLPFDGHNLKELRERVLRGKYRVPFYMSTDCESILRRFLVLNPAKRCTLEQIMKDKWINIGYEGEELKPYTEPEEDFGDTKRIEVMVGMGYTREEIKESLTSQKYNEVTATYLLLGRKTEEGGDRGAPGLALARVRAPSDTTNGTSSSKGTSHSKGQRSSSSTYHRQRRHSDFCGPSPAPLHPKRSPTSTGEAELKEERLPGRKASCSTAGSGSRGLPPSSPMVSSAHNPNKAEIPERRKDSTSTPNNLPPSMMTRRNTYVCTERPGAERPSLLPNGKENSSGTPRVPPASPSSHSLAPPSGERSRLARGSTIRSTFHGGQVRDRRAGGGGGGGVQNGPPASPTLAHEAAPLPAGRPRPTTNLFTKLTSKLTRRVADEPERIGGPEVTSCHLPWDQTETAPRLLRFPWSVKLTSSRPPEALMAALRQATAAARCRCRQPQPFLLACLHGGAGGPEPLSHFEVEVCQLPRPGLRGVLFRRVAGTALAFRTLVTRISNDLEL

[7] = molecular target: T7, MAPKAPK5 (Homo sapiens, UniProt Q8IW41)
T7 construct: purchased Eurofins DiscoverX KINOMEscan
T7 sequence (Q8IW41 1-473): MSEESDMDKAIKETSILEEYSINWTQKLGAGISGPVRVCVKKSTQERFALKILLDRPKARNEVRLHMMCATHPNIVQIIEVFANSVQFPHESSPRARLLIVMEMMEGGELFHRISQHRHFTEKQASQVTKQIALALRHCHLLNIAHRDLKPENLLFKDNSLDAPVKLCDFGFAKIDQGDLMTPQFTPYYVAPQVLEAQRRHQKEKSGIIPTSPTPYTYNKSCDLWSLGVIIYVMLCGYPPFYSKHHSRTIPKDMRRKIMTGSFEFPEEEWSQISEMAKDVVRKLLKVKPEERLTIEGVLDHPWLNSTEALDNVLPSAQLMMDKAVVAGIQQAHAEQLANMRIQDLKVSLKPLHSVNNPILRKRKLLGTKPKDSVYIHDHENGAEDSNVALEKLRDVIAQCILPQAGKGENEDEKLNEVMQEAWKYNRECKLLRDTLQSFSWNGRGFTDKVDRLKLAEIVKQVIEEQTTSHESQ

[8] = molecular target: T8, SBK1 (Homo sapiens, UniProt Q52WX2)
T8 construct: purchased Eurofins DiscoverX KINOMEscan
T8 sequence (Q52WX2 whole entry): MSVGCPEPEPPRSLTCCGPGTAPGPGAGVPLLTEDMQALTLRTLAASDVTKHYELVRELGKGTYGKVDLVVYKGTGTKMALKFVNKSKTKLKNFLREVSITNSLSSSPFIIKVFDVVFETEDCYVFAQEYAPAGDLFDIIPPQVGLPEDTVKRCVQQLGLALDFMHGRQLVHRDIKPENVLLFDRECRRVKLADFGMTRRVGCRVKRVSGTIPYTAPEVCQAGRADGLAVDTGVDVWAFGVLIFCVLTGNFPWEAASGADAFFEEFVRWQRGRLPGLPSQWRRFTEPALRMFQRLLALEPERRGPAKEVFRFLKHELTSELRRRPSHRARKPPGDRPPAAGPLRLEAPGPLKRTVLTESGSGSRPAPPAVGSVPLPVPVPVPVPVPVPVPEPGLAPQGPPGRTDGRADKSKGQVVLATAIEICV

[9] = molecular target: T9, IRAK4 (Homo sapiens, UniProt Q9NWZ3)
T9 construct: purchased Eurofins DiscoverX KINOMEscan
T9 sequence (Q9NWZ3 1-460): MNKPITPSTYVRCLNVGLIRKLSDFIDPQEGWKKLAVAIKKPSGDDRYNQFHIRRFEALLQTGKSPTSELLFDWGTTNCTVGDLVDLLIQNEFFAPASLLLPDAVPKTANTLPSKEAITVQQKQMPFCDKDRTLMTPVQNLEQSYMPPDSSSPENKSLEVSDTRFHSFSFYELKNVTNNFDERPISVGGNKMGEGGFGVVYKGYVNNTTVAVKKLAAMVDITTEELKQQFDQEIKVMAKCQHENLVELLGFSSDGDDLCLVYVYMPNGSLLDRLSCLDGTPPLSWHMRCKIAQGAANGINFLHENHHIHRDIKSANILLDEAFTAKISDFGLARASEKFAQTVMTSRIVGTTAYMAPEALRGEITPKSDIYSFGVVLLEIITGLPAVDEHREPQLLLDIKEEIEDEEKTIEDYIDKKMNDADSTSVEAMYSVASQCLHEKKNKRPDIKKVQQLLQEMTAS

[10] = molecular target: T10, ABL1(M351T)-phosphorylated (Homo sapiens, UniProt P00519, M351T)
T10 construct: purchased Eurofins DiscoverX KINOMEscan

[11] = molecular target: T11, TNIK (Homo sapiens, UniProt Q9UKE5)
T11 construct: purchased Eurofins DiscoverX KINOMEscan
T11 sequence (Q9UKE5 whole entry): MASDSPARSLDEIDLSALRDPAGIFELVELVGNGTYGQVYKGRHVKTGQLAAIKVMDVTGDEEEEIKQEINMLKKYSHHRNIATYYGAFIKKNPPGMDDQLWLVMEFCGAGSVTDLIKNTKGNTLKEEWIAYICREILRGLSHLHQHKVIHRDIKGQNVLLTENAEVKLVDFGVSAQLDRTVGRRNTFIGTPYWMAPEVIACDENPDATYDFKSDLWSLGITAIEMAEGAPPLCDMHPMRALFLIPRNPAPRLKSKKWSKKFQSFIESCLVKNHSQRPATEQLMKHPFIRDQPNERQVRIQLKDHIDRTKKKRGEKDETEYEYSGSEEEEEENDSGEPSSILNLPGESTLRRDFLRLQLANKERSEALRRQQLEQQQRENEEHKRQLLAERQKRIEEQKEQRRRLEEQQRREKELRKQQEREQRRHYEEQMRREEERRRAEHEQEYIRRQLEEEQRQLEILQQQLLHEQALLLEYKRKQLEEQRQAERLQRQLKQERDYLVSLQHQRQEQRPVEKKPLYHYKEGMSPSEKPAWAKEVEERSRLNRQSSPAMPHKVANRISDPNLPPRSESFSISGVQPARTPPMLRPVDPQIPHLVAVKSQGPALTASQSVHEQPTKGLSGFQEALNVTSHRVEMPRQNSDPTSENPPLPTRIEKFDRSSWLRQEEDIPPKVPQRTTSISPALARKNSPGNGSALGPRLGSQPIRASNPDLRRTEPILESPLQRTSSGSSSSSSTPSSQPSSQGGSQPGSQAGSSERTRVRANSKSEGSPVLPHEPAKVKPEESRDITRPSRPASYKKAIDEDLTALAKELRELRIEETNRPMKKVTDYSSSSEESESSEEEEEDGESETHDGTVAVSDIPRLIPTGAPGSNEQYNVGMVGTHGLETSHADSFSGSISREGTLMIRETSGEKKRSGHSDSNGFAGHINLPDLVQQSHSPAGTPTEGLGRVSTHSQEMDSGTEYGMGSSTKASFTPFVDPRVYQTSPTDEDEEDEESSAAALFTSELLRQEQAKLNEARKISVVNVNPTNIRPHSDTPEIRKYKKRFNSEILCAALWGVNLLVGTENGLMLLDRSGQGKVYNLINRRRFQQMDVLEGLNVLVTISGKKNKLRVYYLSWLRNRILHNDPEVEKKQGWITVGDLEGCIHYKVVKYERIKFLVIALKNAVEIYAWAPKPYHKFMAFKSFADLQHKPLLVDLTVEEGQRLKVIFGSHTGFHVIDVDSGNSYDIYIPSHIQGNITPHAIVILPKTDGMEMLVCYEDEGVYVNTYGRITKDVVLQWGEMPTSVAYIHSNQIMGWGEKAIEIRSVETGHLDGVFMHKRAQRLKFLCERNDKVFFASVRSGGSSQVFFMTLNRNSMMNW

T2 sequence (Q02750 whole entry): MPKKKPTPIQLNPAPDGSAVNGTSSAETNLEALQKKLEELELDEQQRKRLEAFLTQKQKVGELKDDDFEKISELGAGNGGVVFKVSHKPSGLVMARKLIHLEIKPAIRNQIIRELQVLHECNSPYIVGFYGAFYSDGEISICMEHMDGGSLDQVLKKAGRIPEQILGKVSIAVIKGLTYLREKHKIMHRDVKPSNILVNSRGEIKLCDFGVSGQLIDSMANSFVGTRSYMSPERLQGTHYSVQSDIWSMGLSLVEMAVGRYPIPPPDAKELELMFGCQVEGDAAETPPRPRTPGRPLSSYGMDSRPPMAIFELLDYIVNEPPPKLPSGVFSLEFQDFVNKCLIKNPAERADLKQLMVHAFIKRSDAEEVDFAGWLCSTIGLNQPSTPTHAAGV
T1 sequence (P54756 25-1037): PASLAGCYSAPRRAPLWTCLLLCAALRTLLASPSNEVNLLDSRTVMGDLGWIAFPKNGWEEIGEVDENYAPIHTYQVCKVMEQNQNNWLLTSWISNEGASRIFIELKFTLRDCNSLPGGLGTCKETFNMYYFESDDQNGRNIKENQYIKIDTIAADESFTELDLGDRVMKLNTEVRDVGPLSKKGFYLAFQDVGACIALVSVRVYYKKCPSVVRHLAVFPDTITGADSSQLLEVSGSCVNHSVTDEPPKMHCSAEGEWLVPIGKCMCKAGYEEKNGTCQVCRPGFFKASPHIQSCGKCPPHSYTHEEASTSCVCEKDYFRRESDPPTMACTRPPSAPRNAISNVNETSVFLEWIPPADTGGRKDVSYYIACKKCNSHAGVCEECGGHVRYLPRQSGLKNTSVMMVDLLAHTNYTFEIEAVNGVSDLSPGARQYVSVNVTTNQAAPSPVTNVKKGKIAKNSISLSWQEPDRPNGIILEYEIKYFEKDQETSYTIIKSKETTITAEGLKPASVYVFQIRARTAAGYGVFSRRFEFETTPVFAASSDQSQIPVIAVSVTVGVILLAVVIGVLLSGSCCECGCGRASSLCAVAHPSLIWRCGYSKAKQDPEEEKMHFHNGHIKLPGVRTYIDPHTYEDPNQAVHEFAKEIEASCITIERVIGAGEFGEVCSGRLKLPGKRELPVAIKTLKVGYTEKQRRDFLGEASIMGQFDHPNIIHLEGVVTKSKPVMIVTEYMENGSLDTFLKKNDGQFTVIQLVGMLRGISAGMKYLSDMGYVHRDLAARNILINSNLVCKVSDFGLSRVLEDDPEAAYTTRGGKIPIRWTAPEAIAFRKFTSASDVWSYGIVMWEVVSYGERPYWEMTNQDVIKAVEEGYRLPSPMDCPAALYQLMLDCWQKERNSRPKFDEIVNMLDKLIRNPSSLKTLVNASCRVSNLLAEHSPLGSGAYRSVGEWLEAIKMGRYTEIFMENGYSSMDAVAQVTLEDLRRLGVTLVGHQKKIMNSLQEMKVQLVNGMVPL

SMILES	remaining binding at 1 µM [1] [%]	remaining binding at 1 µM [2] [%]	remaining binding at 1 µM [3] [%]	remaining binding at 1 µM [4] [%]	remaining binding at 1 µM [5] [%]	remaining binding at 1 µM [6] [%]	remaining binding at 1 µM [7] [%]	remaining binding at 1 µM [8] [%]	remaining binding at 1 µM [9] [%]	remaining binding at 1 µM [10] [%]	remaining binding at 1 µM [11] [%]
Clc1cc(NCC2CC2)c2ncc(-c3ccc4[nH]ncc4c3)n2n1 [compound 2, 6-Chloro-N-(cyclopropylmethyl)-3-(1H-indazol-5-yl)imidazo[1,2-b]pyridazin-8-amine]	99	95	85	21	91	92	91	87	92	91	80
O=C(CN1CCOCC1)N[C@H]1CC[C@H](Nc2cc(Cl)nn3c(-c4ccc5[nH]ncc5c4)cnc23)CC1 [compound 26]	93	93	75	22	93	95	98	89	85	57	47
CN1CCC(CNc2cc(Cl)nn3c(-c4cc5nc(Nc6ccccc6)[nH]c5cc4F)cnc23)CC1 [compound 31, 6-Chloro-3-(6-fluoro-2-(phenylamino)-1H-benzo[d]imidazol-5-yl)-N-((1-methylpiperidin-4-yl)methyl)imidazo[1,2-b]pyridazin-8-amine]	99	80	99	66	96	93	82	77	91	78	97
